From patent US9102591B2, “Benzamides” (H. Lundbeck A/S, priority 2012, dated 2015)

biological target: P2X7 receptor (Homo sapiens (Human), UniProt Q99572); assay: P2X7 FLIPR assay (BzATP-stimulated calcium fluorescence, antagonist IC50); format: cell-based
Outline: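 Cells expressing P2X7 receptor (human, rat or mouse), plated 24 hours earlier in low-serum medium, loaded with Fluo-4 NW dye (30 min 37° C, 30 min room temperature).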

Sequence of P2X7 receptor (Q99572 whole entry): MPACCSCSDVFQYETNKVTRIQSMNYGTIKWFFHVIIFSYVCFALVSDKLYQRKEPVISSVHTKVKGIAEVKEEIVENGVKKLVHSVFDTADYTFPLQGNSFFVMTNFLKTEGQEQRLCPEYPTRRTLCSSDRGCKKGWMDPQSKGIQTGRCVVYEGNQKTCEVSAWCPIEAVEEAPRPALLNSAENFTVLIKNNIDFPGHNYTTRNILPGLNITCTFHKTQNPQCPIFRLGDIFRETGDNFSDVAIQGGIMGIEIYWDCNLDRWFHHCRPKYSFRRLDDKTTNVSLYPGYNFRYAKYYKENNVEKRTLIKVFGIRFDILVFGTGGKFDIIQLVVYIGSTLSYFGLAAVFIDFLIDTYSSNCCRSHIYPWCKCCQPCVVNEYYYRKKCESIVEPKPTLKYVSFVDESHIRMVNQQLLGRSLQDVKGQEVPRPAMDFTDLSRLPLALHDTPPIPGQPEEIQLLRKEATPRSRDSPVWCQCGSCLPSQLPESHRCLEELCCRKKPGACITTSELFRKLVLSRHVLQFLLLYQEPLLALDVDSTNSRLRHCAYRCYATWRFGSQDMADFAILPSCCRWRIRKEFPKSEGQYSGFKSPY

Compound	IC50
O=C(NCC(c1ccccc1)c1ccc(C(F)(F)F)nc1)c1c(Cl)cccc1Cl (single isomer, unassigned; (-)) [(−)2,6-dichloro-N-[2-phenyl-2-[6-(trifluoromethyl)-3-pyridyl] [(−)2,6-dichloro-N-[2-phenyl-2-[6-(trifluoromethyl)-3-pyridyl]ethyl]benzamide]	18 nM
Cc1ncc(C(CNC(=O)c2c(Cl)cccc2Cl)CC2CC2)cn1 (single isomer, unassigned; (-)) [(−)2,6-dichloro-N-[3-cyclopropyl-2-(2-methylpyrimidin-5-yl)p] [(−)2,6-dichloro-N-[3-cyclopropyl-2-(2-methylpyrimidin-5-yl)propyl]benzamide]	9.9 nM
O=C(NCC(c1ccc(F)cc1)c1ccc(C(F)(F)F)nc1)c1cccc(F)c1Cl (single isomer, unassigned; (-)) [(−)2-chloro-3-fluoro-N-[2-(4-fluorophenyl)-2-[6-(trifluorome] [(−)2-chloro-3-fluoro-N-[2-(4-fluorophenyl)-2-[6-(trifluoromethyl)-3-pyridyl]ethyl]benzamide]	7 nM
O=C(NCC(c1cnc(C(F)(F)F)nc1)C1CCOCC1)c1cccc(F)c1Cl (single isomer, unassigned; (-)) [(−)2-chloro-3-fluoro-N-[2-tetrahydropyran-4-yl-2-[2-(trifluo] [(−)2-chloro-3-fluoro-N-[2-tetrahydropyran-4-yl-2-[2-(trifluoromethyl)pyrimidin-5-yl]ethyl]benzamide]	64 nM
O=C(NCC(CC1(C(F)(F)F)CC1)c1cnc(C(F)(F)F)nc1)c1cccc(F)c1Cl (single isomer, unassigned; (-)) [(−)2-chloro-3-fluoro-N-[3-[1-(trifluoromethyl)cyclopropyl]-2] [(−)2-chloro-3-fluoro-N-[3-[1-(trifluoromethyl)cyclopropyl]-2-[2-(trifluoromethyl)pyrimidin-5-yl]propyl]benzamide]	29 nM
O=C(NCC(CC1(C(F)(F)F)CC1)c1ccc(C(F)(F)F)nc1)c1cccc(F)c1Cl (single isomer, unassigned; (-)) [(−)2-chloro-3-fluoro-N-[3-[1-(trifluoromethyl)cyclopropyl]-2] [(−)2-chloro-3-fluoro-N-[3-[1-(trifluoromethyl)cyclopropyl]-2-[6-(trifluoromethyl)-3-pyridyl]propyl]benzamide]	16 nM

Compounds with a lower IC50, results first:

IC50	Compound
2.6 nM	O=C(NCC(c1ccc(F)cc1)c1cnc(C(F)(F)F)nc1)c1c(F)cccc1Cl (single isomer, unassigned; (-)) [(−)2-chloro-6-fluoro-N-[2-(4-fluorophenyl)-2-[2-(trifluorome] [(−)2-chloro-6-fluoro-N-[2-(4-fluorophenyl)-2-[2-(trifluoromethyl)pyrimidin-5-yl]ethyl]benzamide]
1.8 nM	O=C(NCC(c1ccc(F)cc1)c1cnc(C(F)(F)F)nc1)c1cccc(F)c1Cl (single isomer, unassigned; (-)) [(−)2-chloro-3-fluoro-N-[2-(4-fluorophenyl)-2-[2-(trifluorome] [(−)2-chloro-3-fluoro-N-[2-(4-fluorophenyl)-2-[2-(trifluoromethyl)pyrimidin-5-yl]ethyl]benzamide]
1.2 nM	O=C(NCC(CC1CC1)c1ccc(C(F)(F)F)nc1)c1c(Cl)cccc1Cl (single isomer, unassigned; (-)) [(−)2,6-dichloro-N-[3-cyclopropyl-2-[6-(trifluoromethyl)-3-py] [(−)2,6-dichloro-N-[3-cyclopropyl-2-[6-(trifluoromethyl)-3-pyridyl]propyl]benzamide]
0.82 nM	O=C(NCC(CC1CC1)c1cnc(C(F)(F)F)nc1)c1c(Cl)cccc1Cl (single isomer, unassigned; (-)) [(−)2,6-dichloro-N-[3-cyclopropyl-2-[2-(trifluoromethyl)pyrim] [(−)2,6-dichloro-N-[3-cyclopropyl-2-[2-(trifluoromethyl)pyrimidin-5-yl]propyl]benzamide]
